Measured values as given in PubChem BioAssay AID256 (DTP/NCI, 2004).
“And” between values parts separate entries of the source, which are not always exact repeats. Equal entries are not always repeated. Toxic doses and inconclusive results are not listed. Rule for the calls: active = survival T/C of 150% or more; inactive = T/C below 125% in these data.

Tested on: CD2F1 mice, L1210 leukemia ip, survival T/C
Experiment: NCI In Vivo Anticancer Drug Screen. Data for tumor model L1210 Leukemia (intraperitoneal) in CD2F1 (CDF1) mice
Settings: higher = longer survival
In short: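 Each value reflects a quotient of treated over vehicle control outcomes in mice with a transplanted tumor.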

[1] = endpoint: mean survival time, dose: 100.0 mg/kg/injection, schedule: Q01DX009 (ip), vehicle: saline with Tween-80
[2] = endpoint: mean survival time, dose: 100.0 mg/kg/injection, schedule: Q04DX003 (ip), vehicle: saline with Tween-80
[3] = endpoint: mean survival time, dose: 200.0 mg/kg/injection, schedule: Q01DX009 (ip), vehicle: saline with Tween-80
[4] = endpoint: mean survival time, dose: 200.0 mg/kg/injection, schedule: Q04DX003 (ip), vehicle: saline with Tween-80
[5] = endpoint: mean survival time, dose: 400.0 mg/kg/injection, schedule: Q01DX009 (ip), vehicle: saline with Tween-80
[6] = endpoint: mean survival time, dose: 400.0 mg/kg/injection, schedule: Q04DX003 (ip), vehicle: saline with Tween-80
[7] = endpoint: mean survival time, dose: 0.78 mg/kg/injection, schedule: Q01DX009 (ip), vehicle: saline
[8] = endpoint: mean survival time, dose: 1.56 mg/kg/injection, schedule: Q01DX009 (ip), vehicle: saline
[9] = endpoint: mean survival time, dose: 6.25 mg/kg/injection, schedule: Q01DX009 (ip), vehicle: saline
[10] = endpoint: mean survival time, dose: 400.0 mg/kg/injection, schedule: Q04DX002 (ip), vehicle: saline with Tween-80

Measured: T/C

CSC(=S)N(C)N
inactive: [1] 104 % of control | [2] 102 % of control | [3] 103 % of control | [4] 100 % of control | [5] 104 % of control | [6] 102 % of control

NC(N)=NC(N)=Nc1ccc(-c2ccc(N=C(N)N=C(N)N)cc2)cc1
inactive: [7] 100 % of control | [8] 105 % of control | endpoint: mean survival time, dose: 3.13 mg/kg/injection, schedule: Q01DX009 (ip), vehicle: saline 102 % of control | [9] 111 % of control | endpoint: mean survival time, dose: 12.5 mg/kg/injection, schedule: Q01DX009 (ip), vehicle: saline 104 % of control | endpoint: mean survival time, dose: 25.0 mg/kg/injection, schedule: Q01DX009 (ip), vehicle: saline 111 % of control

SCc1c(Cl)c(Cl)c(Cl)c(Cl)c1Cl
inactive: endpoint: mean survival time, dose: 100.0 mg/kg/injection, schedule: Q04DX002 (ip), vehicle: saline with Tween-80 94 % of control | endpoint: mean survival time, dose: 200.0 mg/kg/injection, schedule: Q04DX002 (ip), vehicle: saline with Tween-80 87 % of control | [10] 97 % of control

CCCCCCCCCCC(=O)CCCC
inactive: [2] 98 % of control | [4] 94 % of control | [6] 100 % of control

O=C1CNC(=O)N1CN1CCOCC1
inactive: endpoint: median survival time, dose: 50.0 mg/kg/injection, schedule: Q01DX009 (ip), vehicle: Klucel (hydroxypropylcellulose) (HPC) 108 % of control | endpoint: median survival time, dose: 100.0 mg/kg/injection, schedule: Q01DX009 (ip), vehicle: Klucel (hydroxypropylcellulose) (HPC) 116 % of control | endpoint: median survival time, dose: 200.0 mg/kg/injection, schedule: Q01DX009 (ip), vehicle: Klucel (hydroxypropylcellulose) (HPC) 116 % of control | endpoint: median survival time, dose: 400.0 mg/kg/injection, schedule: Q01DX009 (ip), vehicle: Klucel (hydroxypropylcellulose) (HPC) 117 % of control

CCCCCn1c(C)cc(/C=C\c2ccc3cc(C)ccc3[n+]2C)c1C
inactive: endpoint: mean survival time, dose: 0.62 mg/kg/injection, schedule: Q01DX009 (ip), vehicle: Klucel (hydroxypropylcellulose) (HPC) 101 % of control | endpoint: mean survival time, dose: 0.63 mg/kg/injection, schedule: Q01DX009 (ip), vehicle: Klucel (hydroxypropylcellulose) (HPC) 106 % of control | endpoint: mean survival time, dose: 1.25 mg/kg/injection, schedule: Q01DX009 (ip), vehicle: Klucel (hydroxypropylcellulose) (HPC) 114 % of control and 107 % of control

COc1ccc(/C=c2\[nH]c(=O)/c(=C/c3ccc(OC)c(OC)c3)[nH]c2=O)cc1OC
inactive: endpoint: mean survival time, dose: 25.0 mg/kg/injection, schedule: Q01DX009 (ip), vehicle: saline with Tween-80 95 % of control | endpoint: mean survival time, dose: 50.0 mg/kg/injection, schedule: Q01DX009 (ip), vehicle: saline with Tween-80 103 % of control | [1] 90 % of control

Cc1c2ncnc-2ncn1O
inactive: endpoint: mean survival time, dose: 25.0 mg/kg/injection, schedule: Q04DX003 (ip), vehicle: saline 97 % of control | endpoint: mean survival time, dose: 50.0 mg/kg/injection, schedule: Q04DX003 (ip), vehicle: saline 101 % of control | endpoint: mean survival time, dose: 100.0 mg/kg/injection, schedule: Q04DX003 (ip), vehicle: saline 104 % of control

O=C(NC(=S)Nc1cccc2ccccc12)c1cccc(Br)c1
inactive: endpoint: mean survival time, dose: 50.0 mg/kg/injection, schedule: Q04DX002 (ip), vehicle: saline with Tween-80 89 % of control and 98 % of control | endpoint: mean survival time, dose: 100.0 mg/kg/injection, schedule: Q01DX001 (ip), vehicle: saline with Tween-80 96 % of control | [1] 98 % of control and 104 % of control | [2] 96 % of control | endpoint: mean survival time, dose: 200.0 mg/kg/injection, schedule: Q01DX001 (ip), vehicle: saline with Tween-80 95 % of control | [3] 96 % of control and 98 % of control | [4] 100 % of control | endpoint: mean survival time, dose: 400.0 mg/kg/injection, schedule: Q01DX001 (ip), vehicle: saline with Tween-80 95 % of control | [5] 102 % of control and 106 % of control | [10] 90 % of control and 95 % of control | [6] 96 % of control

CCN(CC)[P+](c1ccccc1O)(N(CC)CC)N(CC)CC
inactive: endpoint: mean survival time, dose: 0.39 mg/kg/injection, schedule: Q01DX009 (ip), vehicle: saline 103 % of control | [7] 104 % of control | [8] 109 % of control | [9] 92 % of control

Clc1ccc(N=C(Nc2ccc(Cl)cc2)c2ccccc2)cc1
inactive: [2] 104 % of control | [4] 110 % of control | [6] 98 % of control

Cc1ccc(C(=O)CCCCl)cc1C
inactive: [1] 104 % of control | [3] 96 % of control | [5] 98 % of control
